From the supplement of paper PMC4862054

Key:
Conditions in all cases: incubation time: 72 h
[1] = test system: HCC1937; assay: normalised response (% of control), CellTox Green; higher = less cell death (100 = DMSO, 0 = benzethonium chloride kill control)
In short: (§1)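 Normalised signals at single concentrations make up the values. They come from breast cancer cell lines seeded (20 µl suspension) into 384-well plates with compound at 5 concentrations in 10-fold steps over a compound-specific 10,000-fold range, incubated 72 h, and read for CellTox Green fluorescence then CellTiter-Glo luminescence. Each plate was normalised to 0.1 % DMSO (100) and a positive kill control (0).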

[2] = test system: MCF-10A; assay: as above
In short: as §1

[3] = test system: BT-549; assay: as above
In short: as §1

[4] = test system: MDA-MB-453; assay: as above
In short: as §1

[5] = test system: HDQ-P1; assay: as above
In short: as §1

[6] = test system: DU-4475; assay: as above
In short: as §1

[7] = test system: MDA-MB-436; assay: as above
In short: as §1

[8] = test system: BT-474; assay: as above
In short: as §1

[9] = test system: MDA-MB-231; assay: as above
In short: as §1

[10] = test system: CAL-120; assay: as above
In short: as §1

[11] = test system: HCC1143; assay: as above
In short: as §1

[12] = test system: CAL-51; assay: as above
In short: as §1

[13] = test system: Hs578T; assay: as above
In short: as §1

[14] = test system: MDA-MB-468; assay: as above
In short: as §1

[15] = test system: MFM-223; assay: as above
In short: as §1

[16] = test system: CAL-85-1; assay: as above
In short: as §1

[17] = test system: HCC1599; assay: as above
In short: as §1

[18] = test system: CAL-148; assay: as above
In short: as §1

[19] = test system: HCC1937; assay: normalised response (% of control), CellTiter-Glo; higher = more viable cells (100 = DMSO, 0 = benzethonium chloride kill control)
In short: as §1

[20] = test system: MCF-10A; assay: as above
In short: as §1

[21] = test system: BT-549; assay: as above
In short: as §1

[22] = test system: MDA-MB-453; assay: as above
In short: as §1

[23] = test system: HDQ-P1; assay: as above
In short: as §1

[24] = test system: DU-4475; assay: as above
In short: as §1

[25] = test system: MDA-MB-436; assay: as above
In short: as §1

[26] = test system: BT-474; assay: as above
In short: as §1

[27] = test system: MDA-MB-231; assay: as above
In short: as §1

[28] = test system: CAL-120; assay: as above
In short: as §1

[29] = test system: HCC1143; assay: as above
In short: as §1

[30] = test system: CAL-51; assay: as above
In short: as §1

[31] = test system: Hs578T; assay: as above
In short: as §1

[32] = test system: MDA-MB-468; assay: as above
In short: as §1

[33] = test system: MFM-223; assay: as above
In short: as §1

[34] = test system: CAL-85-1; assay: as above
In short: as §1

[35] = test system: SK-BR-3; assay: as above
In short: as §1

[36] = test system: HCC1599; assay: as above
In short: as §1

[37] = test system: CAL-148; assay: as above
In short: as §1

Row | SMILES | normalised response [1] [%] | normalised response [2] [%] | normalised response [3] [%] | normalised response [4] [%] | normalised response [5] [%] | normalised response [6] [%] | normalised response [7] [%] | normalised response [8] [%] | normalised response [9] [%] | normalised response [10] [%] | normalised response [11] [%] | normalised response [12] [%] | normalised response [13] [%] | normalised response [14] [%] | normalised response [15] [%] | normalised response [16] [%] | normalised response [17] [%] | normalised response [18] [%] | normalised response [19] [%] | normalised response [20] [%] | normalised response [21] [%] | normalised response [22] [%] | normalised response [23] [%] | normalised response [24] [%] | normalised response [25] [%] | normalised response [26] [%] | normalised response [27] [%] | normalised response [28] [%] | normalised response [29] [%] | normalised response [30] [%] | normalised response [31] [%] | normalised response [32] [%] | normalised response [33] [%] | normalised response [34] [%] | normalised response [35] [%] | normalised response [36] [%] | normalised response [37] [%]
1 | CN(C)/N=N/c1[nH]cnc1C(N)=O [Dacarbazine] (100 nM) | 106 | 107 | 96.7 | 99.6 | 105 | 102 | 100 | 101 | 101 | 101 | 82.8 | 110 | 79.5 | 85.4 | 105 | 105 | 101 | 106 | 102 | 100 | 115 | 103 | 98.5 | 105 | 102 | 96.8 | 107 | 101 | 112 | 101 | 103 | 100 | 105 | 106 | 107 | 92 | 105
2 | C[C@@H](Oc1cc(-c2cnn(C3CCNCC3)c2)cnc1N)c1c(Cl)ccc(F)c1Cl [Crizotinib] (10 nM) | 90.5 | 80.3 | 98.6 | 105 | 96.1 | 103 | 65.4 | 100 | 88.4 | 107 | 89.3 | 84.9 | 105 | 230 | 105 | 89.3 | 109 | 102 | 98.2 | 101 | 96.7 | 107 | 93.6 | 103 | 99 | 102 | 104 | 100 | 102 | 57.6 | 99.9 | 92.7 | 99.3 | 93.5 | 97.3 | 97.4 | 100
3 | Cn1c(CCCC(=O)O)nc2cc(N(CCCl)CCCl)ccc21 [Bendamustine] (100 nM) | 88.6 | 73.5 | 101 | 105 | 88.7 | 103 | 91.8 | 102 | 102 | 97.4 | 110 | 111 | 105 | 141 | 105 | 89.6 | 109 | 107 | 105 | 108 | 106 | 125 | 102 | 101 | 97.6 | 104 | 104 | 103 | 111 | 107 | 103 | 106 | 106 | 97.3 | 108 | 99.1 | 117
4 | N#CCNC(=O)c1ccc(-c2ccnc(Nc3ccc(N4CCOCC4)cc3)n2)cc1 [Momelotinib] (100 nM) | 94.6 | 66.3 | 104 | 101 | 102 | 97.5 | 104 | 100 | 53.8 | 98.2 | 78.1 | 83 | 93.5 | 168 | 81.4 | 102 | 89.7 | 97.8 | 97.8 | 85.6 | 102 | 110 | 105 | 95.9 | 99.1 | 92.1 | 94.8 | 97.2 | 117 | 70.4 | 102 | 90 | 94.8 | 101 | 95.9 | 112 | 94.1
5 | CCC1=C[C@@H]2CN(C1)Cc1c([nH]c3ccccc13)[C@@](C(=O)OC)(c1cc3c(cc1OC)N(C)[C@H]1[C@@](O)(C(=O)OC)[C@H](OC(C)=O)[C@]4(CC)C=CCN5CC[C@]31[C@@H]54)C2 [Vinorelbine] (100 nM) | 88.4 | -12.8 | 80.3 | 83.8 | 93.5 | 101 | 90.9 | 76.3 | 71.5 | 84.8 | 85.7 | 28.6 | 49.2 | 29.7 | 59.8 | 51.3 | 90.6 | 67.3 | 71.4 | 59.5 | 31.6 | 59.7 | 75.8 | 91.7 | 38.8 | 70.2 | 74.9 | 58.1 | 45.6 | 68.2 | 48.1 | 21 | 59.8 | 31.1 | 10.4 | 62.8 | 42.8
6 | O=C(O)c1ccc(-c2c[nH]c3ncc(-c4ccccc4)cc23)cc1C1CCCC1 (100 nM) | 107 | 97.3 | 83.6 | 95.8 | 99 | 95.1 | 95.5 | 99.5 | 89.3 | 95 | 83.7 | 84.6 | 89.5 | 108 | 101 | 108 | 98.6 | 101 | 97.1 | 93.1 | 101 | 97.6 | 96.7 | 98.2 | 89.5 | 93.8 | 97.3 | 97.9 | 102 | 64.1 | 103 | 90.6 | 96.2 | 101 | 97.2 | 89.5 | 88
7 | O=C1CCC(N2C(=O)c3ccccc3C2=O)C(=O)N1 (stereo not given) [Thalidomide] (100 nM) | 87.4 | 109 | 106 | 104 | 95.2 | 101 | 97.9 | 102 | 106 | 98.8 | 103 | 103 | 94.8 | 127 | 99.8 | 107 | 96.6 | 79.1 | 98.1 | 98.9 | 98.3 | 101 | 105 | 102 | 101 | 103 | 95.6 | 95.2 | 95.9 | 100 | 94.5 | 93.6 | 95.7 | 95.6 | 97.7 | 99.6 | 97.4
8 | C[C@]12CC[C@@H]3c4ccc(O)cc4C[C@@H](CCCCCCCCC[S+]([O-])CCCC(F)(F)C(F)(F)F)[C@H]3[C@@H]1CC[C@@H]2O (stereo not given in full) [Fulvestrant] (10 nM) | 121 | 104 | 104 | 79.4 | 97.2 | 103 | 107 | 99.8 | 115 | 101 | 107 | 109 | 100 | 86.1 |  | 102 | 105 | 104 | 92.8 | 109 | 106 | 103 | 96.1 | 101 | 103 | 104 | 106 | 103 | 105 | 111 | 102 | 108 | 104 | 97.9 | 105 | 108 | 105
